Experimental data taken from patent US10001485B2, “Methods for sensitizing a quiescent cancer stem cell to a BCR-ABL inhibitor” (The Regents of the University of California, priority 2011, dated 2018).

What was measured:
[1] = test system: BC LSC; experiment: Serial transplantation of treated bone marrow into secondary recipients, survival; format: in vivo, RAG2−/−γc−/− mice
Excerpt: (§1) Immunocompromised RAG2^−/−yc^−/− mice were bred and maintained in the University of California San Diego Moores Cancer Center vivarium. Neonatal mice were transplanted intrahepatically with 50,000-200,000 CD34^+ cells according to our previously published methods (see Jaiswal, S. et al. cited above and Jamieson, C. H., et al. cited above). Transplanted mice were screened for tumor formation or human engraftment in peripheral blood by FACS at 6-8 weeks post-transplant. Upon detection of tumors, peripheral blood engraftment, or at 8-12 weeks post-transplant engrafted mice were treated for 2 weeks with dasatinib (daily, 50 mg/kg/day in 50% PEG, 50% PBS by oral gavage), sabutoclax (3 days per week, 5 mg/kg/day in 10% EtOH, 10% Cremaphor EL (Sigma Aldrich) 80% PBS by IP injection), or drug vehicles. Twenty-four hours post-treatment (10-14 weeks post-transplant), mice were euthanized and single cell suspensions of hematopoietic tissues were analyzed for human engraftment by FACS as described previously (see Jaiswal, S. et al. and Jamieson, C. H., et al. cited above). For in vivo combination studies, dasatinib was used at 25 or 50 mg/kg while sabutclax was used at 1.25 or 2.5 mg/kg with the same dosing regimen described above. For serial transplantation, a mix of whole mouse bone marrows was made from mice in the same treatment group. Total bone marrow cells were then counted by using Guava ViaCount Reagent and analysis on a Guava PCA system (Millipore), and transplanted in equal numbers into secondary neonatal recipients by intrahepatic injection. 250,000 whole bone marrow cells per mouse were injected.

[2] = test system: BC LSC (human BC CML CD34+CD38+ progenitors); experiment: BC LSC engraftment in vivo (FACS) in mice transplanted with human BC CML CD34+ cells; parameters: species or system RAG2−/−γc−/− mice; conditions: for Mean (SEM) engraftment of CD34+CD38+ cells, Blood / Mean (SEM) engraftment of CD34+CD38+ cells, Marrow / Mean (SEM) engraftment of CD34+CD38+ cells, Spleen: 2 weeks; for effect on marrow LSC engraftment compared to vehicle treated controls: lower doses: sabutoclax 1.25 mg/kg, dasatinib 25 mg/kg
Excerpt: as §1

[3] = test system: BCL2 and MCL1; experiment: Bone marrow BCL2, MCL1 and Ki67 IHC analysis of treated engrafted marrow; format: in vivo, RAG2−/−γc−/− mice; conditions: following sabutoclax treatment; data not shown
Description: For IHC, femurs were harvested from transplanted, treated animals, fixed and decalcified in Cal-Ex II (Fisher Scientific, Fair Lawn, N.J.) for 48 hrs, followed by standard tissue processing, paraffin-embedding and sectioning. Paraffin tissue sections were deparaffinized, rehydrated, and boiled in antigen retrieval solution (BD, California) (pH 6.0) for 10 min to retrieve antigen. Tissues were blocked with 5% bovine serum albumin (BSA) and 0.25% Triton X-100 in PBS for 30 min and incubated with primary antibody in PBS with 1% BSA at 4° C. for 16 h. Primary antibodies used were human CD45 (Abcam) and ki67 (BD). IHC staining was then carried out with LSAB System-HRP Kit (Dako Cytomation, Hamburg, Germany) according to manufacturer's protocol using methyl green (Sigma Aldrich) as counterstaining. […] All sections were mounted before examination using a Nikon Eclipse E600 microscope. […]
Bone specimens were fixed and mildly decalcified in Bouin's solution (Sigma-Aldrich, St. Louis, Mo.) for 8 h at room temperature, then postfixed in zinc-containing buffered formalin (Z-Fix; Anatech Ltd., Battle Creek, Mich.) for 3 days at 4° C., and embedded in paraffin. […] The Spectrum Analysis algorithm package and ImageScope analysis software (version 9; Aperio Technologies, Inc.) were applied to quantify IHC stainings.

[4] = test system: BC LSC-engrafted marrow; experiment: TUNEL apoptosis analysis of engrafted bone marrow; format: in vivo, RAG2−/−γc−/− mice; conditions: following sabutoclax treatment
Excerpt: For apoptosis analysis, bone marrows are stained using the ApopTag fluorescein in situ TUNEL apoptosis detection kit (Chemicon, #S7110) following the manufacturer's protocol. Sections are mounted as above. Images are acquired using an Applied Imaging Ariol SL-50 automated scanning microscope and image analysis system.

[5] = test system: marrow-engrafted BC LSC; experiment: FACS cell cycle analysis (Ki-67/7-AAD) of bone marrow engrafted BC CML cells; format: in vivo, RAG2−/−γc−/− mice; conditions: FIG. 7
Excerpt: Single cell suspensions of bone marrow cells from mice treated with sabutoclax or vehicle were immunostained with Alexa405-conjugated anti-human CD45 (Invitrogen), Alexa647-anti-human CD38 (Ab Serotec) and biotin-anti-human CD34 (Invitrogen) plus Alexa488-strepavidin (Invitrogen) in 2% fetal bovine serum/PBS-followed by live cell staining using the LIVE/DEAD® Fixable Near-IR Dead Cell Stain Kit (Invitrogen). Surface stained cells were then fixed in 70% ethanol overnight. […] Stained samples were analyzed using a FACSAria and FlowJo.

[6] = High dose treatment (sabutoclax 2.5 mg/kg, dasatinib 50 mg/kg)
[7] = Low dose treatment (sabutoclax 1.25 mg/kg, dasatinib 25 mg/kg)

Structure (SMILES) | 2° TP - Median survival ([1]; High dose treatment) | 2° TP - Median survival ([1]; Low dose treatment) | Mean (SEM) engraftment of CD34+CD38+ cells, Blood [2, 6] | Mean (SEM) engraftment of CD34+CD38+ cells, Marrow [2, 6] | Mean (SEM) engraftment of CD34+CD38+ cells, Spleen [2, 6] | Mean (SEM) engraftment of CD34+CD38+ cells, Blood [2, 7] | Mean (SEM) engraftment of CD34+CD38+ cells, Marrow [2, 7] | Mean (SEM) engraftment of CD34+CD38+ cells, Spleen [2, 7] | effect on marrow LSC engraftment compared to vehicle treated controls [2] | LSC engraftment in all hematopoietic tissues including bone marrow ([2]; 5 mg/kg, FIG. 5b) | BCL2 and MCL1 immunopositive cells in BC LSC-engrafted marrow [3] | TUNEL+ apoptotic cells in engrafted marrow [4] | G2/S cells in engrafted marrow [5]
Cc1nc(Nc2ncc(C(=O)Nc3c(C)cccc3Cl)s2)cc(N2CCN(CCO)CC2)n1 [Dasatinib, dasatinib] | 43 days | 79 days | 3.1 (2.4) | 21.23 (2.4) | 0.2 (0.07) | 2.1 (0.9) | 28.8 (10.7) | 2.0 (0.8) | no significant effect | – | – | – | –
Cc1cc2c(C(=O)NC[C@H](C)c3ccccc3)c(O)c(O)cc2c(O)c1-c1c(C)cc2c(C(=O)NC[C@H](C)c3ccccc3)c(O)c(O)cc2c1O [Sabutoclax] | 45 days | 74 days | 24.5 (17.6) | 30.01 (23.2) | 5.1 (1.5) | 11.0 (3.8) | 34.2 (12.5) | 12 (2.7) | no significant effect | significantly reduced | reduced amount | increased | slight increase
